Results as given in patent EP0061341A2, “6-Substituted hexahydroindazolo isoquinolines” (priority 1981, dated 1982).

System: prolactin
Experiment: Serum prolactin levels in rats, reserpinized and non-reserpinized
Format: in vivo, rats of the Sprague-Dawley strain
Conditions: for Prolactin Levels Non-Reserpinized 1 / Prolactin Levels Non-Reserpinized 2: rats not pretreated with reserpine, compound 1 mg./kg.; for Prolactin Levels Non-Reserpinized 1: run 1; for Prolactin Levels Non-Reserpinized 2: run 2; for Prolactin Levels Reserpinize: reserpine 2.0 mg. i.p. 18 hours before, compound 1 mg./kg. intraperitoneally, serum one hour after treatment
Protocol: Adult male rats of the Sprague-Dawley strain weighing about 200 g. were housed in an air-conditioned room with controlled lighting (lights on 6 a.m. - 8 p.m.) and fed lab chow and water ad libitum. Each rat received an intraperitoneal.injection of 2.0 mg. of reserpine in aqueous suspension 18 hours before administration of the compound of formula I. The purpose of the reserpine was to keep prolactin levels uniformly elevated. The compounds under test were dissolved in water and were injected intraperitoneally at a 1 mg./kg. dose level. Each compound was administered to a group of 10 rats, and a control group of 10 intact males received an equivalent amount of solvent. One hour after treatment all rats were killed by decapitation, and 150 ul. aliquots of serum were assayed for prolactin.
In addition, prolactin levels were determined in two runs in which the rats were not pretreated with reserpin. The dose level of the drug was maintained at 1 mg./kg.

Structure (SMILES): CCCN1CCc2cc(O)c(O)c3c2C1Cc1c[nH]nc1-3 (racemic) [1,2-Dihydroxy-6-n-propyl-4,5,,6,6a,7,9-hexahydroindazolo[7,6,5-ij]isoquinoline]
- Prolactin Levels Non-Reserpinized 1: 40.0±9.5 (P<.05)
- Prolactin Levels Non-Reserpinized 2: 23.8±2.8
- Prolactin Levels Reserpinize: 49.9±6.0 (P<.01)

Structure (SMILES): CCN1CCc2cc(OC)c(OC)c3c2C1Cc1c[nH]nc1-3 (stereo not shown) [1,2-Dimethoxy-6-ethyl-4,5,6,6a,7,9-hexahydroindazolo[7,6,5-ij]isoquinoline]
- Prolactin Levels Non-Reserpinized 1: 4.6±0.6
- Prolactin Levels Reserpinize: 30.5±4.9

Structure (SMILES): C=CCN1CCc2cc(OC)c(OC)c3c2C1Cc1c[nH]nc1-3 (racemic) [l,2-Dimethoxy-6-allyl-4,5,6,6a,7,9-hexahydroindazolo[7,6,5-ij]isoquinoline]
- Prolactin Levels Non-Reserpinized 1: 7.3±1.6
- Prolactin Levels Reserpinize: 26.7±2.7

Structure (SMILES): CN1CCc2cccc3c2C1Cc1c[nH]nc1-3 (stereo not shown) [6-Methyl-4,5,6,6a,7,9-hexahydroindazolo-[7,6,5-ij]isoquinoline]
- Prolactin Levels Non-Reserpinized 1: 19.7±3.1
- Prolactin Levels Non-Reserpinized 2: 11.8±2.7
- Prolactin Levels Reserpinize: 39.3±7.3

Structure (SMILES): CCCN1CCc2cccc3c2C1Cc1c[nH]nc1-3 (stereo not shown) [6-n-Propyl-4,5,6,6a,7,9-hexahydroindazolo[7,6,5-ij]isoquinoline]
- Prolactin Levels Non-Reserpinized 1: 9.5±1.7
- Prolactin Levels Non-Reserpinized 2: 7.8±2.6
- Prolactin Levels Reserpinize: 22.6±3.8

Structure (SMILES): CN1CCc2cc(O)c(O)c3c2C1Cc1c[nH]nc1-3 (stereo not shown) [1,2-Dihydroxy-6-methyl-4,5,6,6a,7,9-hexahydroindazolo[7,6,5-ij]isoquinoline]
- Prolactin Levels Non-Reserpinized 1: 45.2±5.4 (P<.001)
- Prolactin Levels Non-Reserpinized 2: 21.6±3.9
- Prolactin Levels Reserpinize: 36.4±4.9

Structure (SMILES): COc1cc2c3c(c1OC)-c1n[nH]cc1CC3N(C)CC2 (stereo not shown) [1,2-Dimethoxy-6-methyl-4,5,6,6a,7,9-hexahydroindazolo[7,6,5-ij]isoquinoline]
- Prolactin Levels Non-Reserpinized 1: 36.6±6.6 (P<.02)
- Prolactin Levels Non-Reserpinized 2: 9.0±3.2
- Prolactin Levels Reserpinize: 41.6±7.7
